Results reported in US11135290B2, “Fucosyllactose as breast milk identical non-digestible oligosaccharide with new functional benefit” (N.V. Nutricia, priority 2009, dated 2021).
Marks after values point to notes of the source that are not given here.

Tests used:
Format in all cases: in vivo, C57BL/6 mice
YAC-1 target cells = test: NK cell cytotoxicity in spleen cell suspensions, 51Cr release assay; settings: mouse splenocytes, dietary supplementation
From the text: (§1) 6-8 Weeks old female C57BL/6 mice (Charles River) received semi-purified AIN-93G-based diets (Research Diet Service, Wijk bij Duurstede, the Netherlands), comprising
1) 2 wt % beta-galacto-oligosaccharide (GOS; source Vivinal GOS, Borculo Domo), fructo-oligosaccharide (FOS; source RaftilineHP, Orafti) and galacturonic acid oligosaccharide (Source AOS) in a 9:1:1.1 ratio. AOS are produced from pectin (Stidzucker AG, Mannheim, Germany), with a DP of 1-20. It consists of approximately 75% galacturonic acid oligomers, based on total weight;
2) 1 wt % lactoneotetraose (LNnT),
3) 1 wt % 3′-sialyl lactose (3′-SL), or
4) 1 wt % 2′-fucosyllactose (2′-FL).
(§2) All groups were compared to the unsupplemented control diet. Dietary supplementation started 14 days before the first vaccination and lasted until the end of the experiment, 31 days after the first vaccination.
Vaccination experiments were performed using Influvac (Solvay Pharmaceuticals, Weesp, the Netherlands) from season 2005/2006. […] The percentage of specific ^51Cr release was calculated as the percentage of specific lysis=(experimental release−spontaneous release)/(total detergent release−spontaneous release)×100. […]
(§3) Statistical analysis was performed using GraphPadPrism software. Statistical differences between test and control groups were analysed by ANOVA and post hoc Dunnett's test if multiple groups were compared to a single (control) group. […]

[1] = test system: regulatory T cells (Treg); test: Percentage of regulatory T cells (Treg) by flow cytometry; settings: dietary supplementation, vaccinated mice
Experimental: All groups were compared to the unsupplemented control diet. Dietary supplementation started 14 days before the first vaccination and lasted until the end of the experiment, 31 days after the first vaccination. […]
The percentage of regulatory T cells (Treg) was determined by flow cytometry (FACSCalibur) using allophycocyanin (APC-)labelled anti-mouse CD3 mAb, Pe-Cy5-labeled anti-mouse CD4 mAb and phycoerythrin (PE)-labelled anti-mouse CD25 mAb in combination with intracellular staining of fluorescein-isotiocyanate (FITC)-labelled Foxp3 mAb, according to the instructions offered by the manufactures (eBiosciences, San Diego, Calif.).

DTH response = DTH response after Influvac vaccination; settings: dietary supplementation, vaccinated mice; TH1-dependent parameter
Experimental: as §1, §2
Vaccination experiments were performed using Influvac (Solvay Pharmaceuticals, Weesp, the Netherlands) from season 2005/2006. The mice received a primary vaccination and a booster vaccination, consisting of a subcutaneous (sc) injection of a 1:1 mix of vaccine and adjuvant in a total volume of 100 μl. The booster vaccination was given at 21 days after the primary vaccination. The experiments ended 10 days after booster vaccination. Blood samples were taken at the end of the experiment. […] The percentage of specific ^51Cr release was calculated as the percentage of specific lysis=(experimental release−spontaneous release)/(total detergent release−spontaneous release)×100. […]
as §3

CC(=O)N[C@H]1[C@H]([C@H](O)[C@H](O)CO)O[C@@](O[C@H]2[C@@H](O)[C@@H](CO)O[C@@H](O[C@H]3[C@H](O)[C@@H](O)C(O)O[C@@H]3CO)[C@@H]2O)(C(=O)O)C[C@@H]1O (stereo partly drawn) [3′-SL, 3′-sialyl lactose]
NK cell activity, % lysis At E:T ratio 1:50 (YAC-1 target cells): 1.93 % lysis | Treg percentage (s.e.m.) [1]: 2.8 (0.2)* percentage | DTH response compared with control-fed animals (DTH response): significant increase

lactoneotetraose [LNnT]
NK cell activity, % lysis At E:T ratio 1:50 (YAC-1 target cells): 2.14 % lysis | Treg percentage (s.e.m.) [1]: 3.2 (0.2) percentage | DTH response compared with control-fed animals (DTH response): significant increase
